Measured values as given in patent US10266497B2 (ABIDE THERAPEUTICS, INC., priority 2017, dated 2019).

Legend:
MAGL [1] = target: T1, MAGL (Homo sapiens, UniProt Q99685); experiment: In vitro competitive activity-based protein profiling, MAGL, human; conditions: for inhibition at 1 µM: read-out: MAGL % inh. 1 μM (human)
T1 sequence (Q99685 1-303): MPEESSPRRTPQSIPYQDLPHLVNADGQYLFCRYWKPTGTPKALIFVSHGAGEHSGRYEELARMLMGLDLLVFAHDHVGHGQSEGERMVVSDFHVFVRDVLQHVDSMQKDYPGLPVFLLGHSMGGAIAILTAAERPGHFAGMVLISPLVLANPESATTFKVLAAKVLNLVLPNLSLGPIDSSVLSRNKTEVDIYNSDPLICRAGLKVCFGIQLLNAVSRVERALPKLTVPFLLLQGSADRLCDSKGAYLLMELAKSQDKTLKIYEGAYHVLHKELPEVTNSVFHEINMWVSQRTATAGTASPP

MAGL [2] = target: T2, MAGL (Mus musculus, UniProt O35678); experiment: In vitro competitive activity-based protein profiling, MAGL, mouse; conditions: read-out: MAGL % inh. 1 μM (mouse)
T2 sequence (O35678 1-303): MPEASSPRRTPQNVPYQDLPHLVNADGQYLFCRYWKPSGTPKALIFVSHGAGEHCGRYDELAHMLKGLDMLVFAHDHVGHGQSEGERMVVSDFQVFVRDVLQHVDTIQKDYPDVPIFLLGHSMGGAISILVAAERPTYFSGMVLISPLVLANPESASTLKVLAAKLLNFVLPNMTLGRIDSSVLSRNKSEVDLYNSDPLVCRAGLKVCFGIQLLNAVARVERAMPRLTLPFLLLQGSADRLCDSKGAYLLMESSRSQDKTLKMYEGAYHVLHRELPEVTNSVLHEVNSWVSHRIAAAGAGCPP

Structure (SMILES)	inhibition at 1 µM (MAGL [1])	inhibition at 1 µM (MAGL [2])	inhibition at 10 µM (MAGL [1]; read-out: MAGL % inh. (human) at 10 uM)
O=C(O)c1nn(C(=O)N2CCN(Cc3cc(Cl)cc(-c4cncnc4)c3)CC2)cc1Cl [Example 323, 4-chloro-1-(4-(3-chloro-5-(pyrimidin-5-yl)benzyl)piperazine-1-carbonyl)-1H-pyrazole-3-carboxylic acid]	> 75%	> 75%	
O=C(O)c1ccn(C(=O)N2CCC3(CCN(Cc4cccc(-c5nccs5)c4)C3)CC2)n1 [Example 305, 1-(2-(3-(thiazol-2-yl)benzyl)-2,8-diazaspiro[4.5]decane-8-carbonyl)-1H-pyrazole-3-carboxylic acid]	50 to 75%	0 to 25%	
O=C(O)c1ccn(C(=O)N2CCN(Cc3ccc(F)c(Oc4ccccc4)c3)CC2)n1 [Example 263, 1-(4-(4-fluoro-3-phenoxybenzyl)pi-perazine-1-carbonyl)-1H-pyrazole-3-carboxylic acid]	> 75%	> 75%	
O=C(O)c1ccn(C(=O)N2C[C@H]3C[C@H](OCc4cccc(-c5ccccc5)c4)C[C@H]3C2)n1 [Example 278, 1-(trans-5-([1,1′-biphenyl]-3-ylmethoxy)octa-hydrocyclopenta[c]pyrrole-2-carbonyl)-1H-pyrazole-3-carboxylic acid]	> 75%	> 75%	
O=C(O)c1ccn(C(=O)N2C[C@H]3C[C@H](Oc4cccc(C(F)(F)F)c4)C[C@H]3C2)n1 [Example 231, 1-(trans-5-(3-(trifluoromethyl)phenoxy)octahydro-cyclopenta[c]pyrrole-2-carbonyl)-1H-pyrazole-3-carboxylic acid]	> 75%	> 75%	
O=C(O)c1ccn(C(=O)N2C[C@H]3CN(Cc4ccc(Cl)c(-c5nccs5)c4)C[C@H]3C2)n1 [Example 315, 1-((3aR,6aS)-5-(4-chloro-3-(thiazol-2-yl)benzyl)octa-hydropyrrolo[3,4-c]pyrrole-2-carbonyl)-1H-pyrazole-3-carboxylic acid]	> 75%	> 75%	
NC(=O)c1ccn(C(=O)N2CCC3(CCN(Cc4cccc(C(F)(F)F)c4)C3)CC2)n1 [Example 284, 1-(2-(3-(trifluoromethyl)benzyl)-2,8-diazaspiro[4.5]decane-8-carbonyl)-1H-pyrazole-3-carboxamide]	> 75%	> 75%	
O=C(O)c1ccn(C(=O)N2C[C@H]3C[C@H](Oc4cccc(-c5nccs5)c4)C[C@H]3C2)n1 [Example 261, 1-(trans-5-(3-(thiazol-2-yl)phenoxy)octa-hydrocyclopenta[c]pyrrole-2-carbonyl)-1H-pyrazole-3-carboxylic acid]	> 75%	> 75%	
O=C(O)c1ccn(C(=O)N2C[C@H]3C[C@H](Oc4ccc(Cl)c(-c5nccs5)c4)C[C@H]3C2)n1 [Example 318, 1-(trans-5-(4-chloro-3-(thiazol-2-yl)phenoxy)octa-hydrocyclopenta[c]pyrrole-2-carbonyl)-1H-pyrazole-3-carboxylic acid]	> 75%	> 75%	
O=C(O)c1nn(C(=O)N2C[C@H]3C[C@H](Oc4cccc(-c5ccccc5)c4)C[C@H]3C2)cc1Cl [Example 304, 1-(trans-5-([1,1′-biphenyl]-3-yloxy)octahydrocyc-lopenta[c]pyrrole-2-carbonyl)-4-chloro-1H-pyrazole-3-carboxylic acid]	> 75%	> 75%	
C[C@@H]1CN(Cc2cccc(Oc3ccc(Cl)cc3)c2)CCN1C(=O)n1ccc(C(N)=O)n1 [Example 310, (R)-1-(4-(3-(4-chlorophenoxy)benzyl)-2-methylpiperazine-1-carbonyl)-1H-pyrazole-3-carboxamide]	> 75%	> 75%	
Cc1ccc(C)c(CN2CCC3(CCN(C(=O)n4ccc(C(=O)O)n4)CC3)C2)c1 [Example 223, 1-(2-(2,5-dimethylbenzyl)-2,8-diazaspiro[4.5]decane-8-carbonyl)-1H-pyrazole-3-carboxylic acid]	> 75%	0 to 25%	
O=C(O)c1ccn(C(=O)N2CCC3(CCN(Cc4cccc(C(F)(F)F)c4)CC3)C2)n1 [Example 287, 1-(8-(3-(trifluoromethyl)benzyl)-2,8-diazaspiro[4.5]decane-2-carbonyl)-1H-pyrazole-3-carboxylic acid]	25 to 50%	0 to 25%	
NC(=O)c1ccc(Cl)cc1CN1CCC2(CCN(C(=O)n3ccc(C(=O)O)n3)CC2)C1 [Example 300, 1-(2-(2-carbamoyl-5-chlorobenzyl)-2,8-diazaspiro[4.5]decane-8-carbonyl)-1H-pyrazole-3-carboxylic acid]		0 to 25%	> 75%
C[C@@H]1CN(Cc2cccc(Oc3ccc(F)cn3)c2)CCN1C(=O)n1ccc(C(=O)O)n1 [Example 295, (R)-1-(4-(3-((5-fluoropyridin-2-yl)oxy)benzyl)-2-methylpiperazine-1-carbonyl)-1H-pyrazole-3-carboxylic acid]	50 to 75%	> 75%	
O=C(O)c1ccn(C(=O)N2C[C@H]3C[C@H](Oc4cc(Cl)ccc4C(F)(F)F)C[C@H]3C2)n1 [Example 297, 1-(trans-5-(5-chloro-2-(trifluoromethyl)phenoxy)octahydro-cyclopenta[c]pyrrole-2-carbonyl)-1H-pyrazole-3-carboxylic acid]	> 75%	> 75%	
O=C(O)c1ccn(C(=O)N2C[C@H]3C[C@H](OCc4cccc(C5CCCC5)c4)C[C@H]3C2)n1 [Example 34, 1-(trans-5-((3-Cyclopentylbenzyl)oxy)octahydrocyclopenta[c]pyrrole-2-carbonyl)-1H-pyrazole-3-carboxylic Acid]	> 75%	> 75%	

Other lines, results leading:

inhibition at 1 µM (MAGL [1])	inhibition at 1 µM (MAGL [2])	inhibition at 10 µM (MAGL [1]; read-out: MAGL % inh. (human) at 10 uM)	Structure (SMILES)
> 75%	> 75%		Cc1cn(C(=O)N2CCC(C)(N(C)Cc3ccc(C(F)(F)F)cc3N3CCCC3)CC2)nc1C(=O)O [Example 398]
> 75%	> 75%		C[C@@H]1CN(Cc2cc(F)cc(Oc3ccc(Cl)cc3)c2)CCN1C(=O)n1ccc(C(=O)O)n1 [Example 348, (R)-1-(4-(3-(4-chlorophenoxy)-5-fluorobenzyl)-2-methylpiperazine-1-carbonyl)-1H-pyrazole-3-carboxylic acid]
> 75%	> 75%		O=C(O)c1ccn(C(=O)N2CCN(Cc3cccc(Oc4cnccc4C(F)(F)F)c3)CC2)n1 [Example 352, 1-(4-(3-((4-(trifluoromethyl)pyridin-3-yl)oxy)benzyl)piper-azine-1-carbonyl)-1H-pyrazole-3-carboxylic acid]
25 to 50%	0 to 25%		O=C(O)c1ccn(C(=O)N2CCC3(CCN(Cc4ccc(Cl)c(N5CC6COCC6C5)c4)C3)CC2)n1 (stereo not shown) [Example 401, 1-(2-(4-chloro-3-(tetrahydro-1H-furo[3,4-c]pyrrol-5(3H)-yl)benzyl)-2,8-diazaspiro[4.5]decane-8-carbonyl)-1H-pyrazole-3-carboxylic acid]
> 75%	> 75%		Cc1cn(C(=O)N2CCN(Cc3cc(F)cc(Oc4ccc(Cl)cc4)c3)CC2)nc1C(=O)O [Example 346, 1-(4-(3-(4-chlorophenoxy)-5-fluorobenzyl)piper-azine-1-carbonyl)-4-methyl-1H-pyrazole-3-carboxylic acid]
> 75%	> 75%		O=C(O)c1ccn(C(=O)N2CCC3(CCCN3Cc3ccc(C(F)(F)F)cc3N3CC4CCC(C3)O4)CC2)n1 [Example 416, 1-(1-(2-(8-oxa-3-azabicyclo[3.2.1]octan-3-yl)-4-(trifluoromethyl)benzyl)-1,8-diazaspiro[4.5]decane-8-carbonyl)-1H-pyrazole-3-carboxylic acid]
> 75%	> 75%		O=C(O)c1nn(C(=O)N2C[C@H]3C[C@H](Oc4cccc(-c5ccccc5)c4)C[C@H]3C2)cc1C(F)(F)F [Example 369, 1-(trans-5-([1,1′-biphenyl]-3-yloxy)octahydro-cyclopenta[c]pyrrole-2-carbonyl)-4-(trifluoromethyl)-1H-pyrazole-3-carboxylic acid]
> 75%	> 75%		O=C(O)c1nn(C(=O)N2CCN(Cc3ccc(N4CCCC4)cc3C(F)(F)F)CC2)cc1Cl [Example 368, 4-chloro-1-(4-(4-(pyrrolidin-1-yl)-2-(trifluoromethyl)benzyl)piperazine-1-carbonyl)-1H-pyrazole-3-carboxylic acid]
> 75%	> 75%		CC(C)(O)COc1cccc(O[C@H]2C[C@@H]3CN(C(=O)n4ccc(C(N)=O)n4)C[C@@H]3C2)c1Cl [Example 452, 1-(trans-5-(2-chloro-3-(2-hydroxy-2-methylpropoxy)phenoxy)octahydro-cyclopenta[c]pyrrole-2-carbonyl)-1H-pyrazole-3-carboxamide]
